Test results taken from patent US20230114241A1, “METHODS OF TREATING EPILEPSY USING THE SAME” (Trevena, Inc., priority 2019, published 2023).

Key:
[1] = target: T1, human sphingosine-1-phosphate receptor 1 (S1P1) (Homo sapiens, UniProt P21453); test: β-Arrestin2 recruitment assay (PathHunter), S1P1 CHO-K1 cells; assay type: cell-based; conditions: for Emax: CHO-K1, β-arrestin2 recruitment, efficacy normalized to maximum efficacy of fingolimod, read-out: hS1P1 B-arrestin2 SPAN; for EC50: β-arrestin2 recruitment, potency, read-out: hS1P1 B-arrestin2 pEC50 (converted)
How it was run: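 CHO-K1 cells co-expressing EA-β-arrestin2 and ProLink-tagged human S1P1 plated overnight, then stimulated 60 min at 37 °C. Enzyme-fragment complementation (β-galactosidase) detected after 1 h at room temperature by luminescence; values normalized to fingolimod.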
Target sequence in this assay (P21453 whole entry, the tested form may be a part): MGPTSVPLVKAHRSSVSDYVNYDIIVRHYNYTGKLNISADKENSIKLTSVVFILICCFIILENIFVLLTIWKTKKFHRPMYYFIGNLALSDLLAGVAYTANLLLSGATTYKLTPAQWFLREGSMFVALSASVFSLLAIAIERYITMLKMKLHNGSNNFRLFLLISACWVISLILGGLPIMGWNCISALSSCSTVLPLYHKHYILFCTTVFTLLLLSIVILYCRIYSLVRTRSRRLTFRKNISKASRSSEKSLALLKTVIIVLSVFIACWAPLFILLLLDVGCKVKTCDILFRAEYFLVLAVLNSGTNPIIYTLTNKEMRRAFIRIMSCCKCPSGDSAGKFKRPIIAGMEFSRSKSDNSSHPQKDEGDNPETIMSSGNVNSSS
Target sequence in this assay (P32121 whole entry partner, the tested form may be a part): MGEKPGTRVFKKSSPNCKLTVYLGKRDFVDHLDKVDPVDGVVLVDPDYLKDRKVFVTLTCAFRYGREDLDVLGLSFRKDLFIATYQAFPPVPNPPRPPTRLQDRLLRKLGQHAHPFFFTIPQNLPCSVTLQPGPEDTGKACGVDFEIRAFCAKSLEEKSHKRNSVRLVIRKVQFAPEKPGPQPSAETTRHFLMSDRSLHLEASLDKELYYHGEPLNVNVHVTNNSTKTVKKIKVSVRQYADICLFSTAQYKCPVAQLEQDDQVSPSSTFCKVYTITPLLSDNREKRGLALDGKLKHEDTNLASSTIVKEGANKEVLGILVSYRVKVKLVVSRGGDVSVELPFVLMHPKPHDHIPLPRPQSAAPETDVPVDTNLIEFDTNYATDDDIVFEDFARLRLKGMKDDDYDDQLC

[2] = target: T1, human sphingosine-1-phosphate receptor 1 (S1P1); test: Inhibition of cAMP production (HTRF cAMP HiRange), S1P1 CHO-K1 cells; assay type: cell-based; conditions: inhibition of cAMP production; for Emax: CHO-K1, efficacy normalized to maximum efficacy of fingolimod, read-out: hS1P1 CAMP SPAN; for EC50: potency, read-out: hS1P1 CAMP pEC50 (converted)
How it was run: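 CHO-K1 cells co-expressing human S1P1 (C-terminal ProLink tag) and EA-β-arrestin2, plated overnight; after 30 min compound incubation at 37 °C, intracellular cAMP measured by HTRF TR-FRET following 1 h at room temperature. Values normalized to fingolimod.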
Target sequence in this assay (P21453 whole entry, the tested form may be a part): as the sequence (P21453 whole entry, the tested form may be a part) above

| Compound | Emax [1] [%] | EC50 [1] [µM] | Emax [2] [%] | EC50 [2] [µM] |
| --- | --- | --- | --- | --- |
| COc1ccccc1-c1cnc(-c2ccc3c(c2)nnn3C(C)C)s1 [Compound 184, 2-(1-isopropyl-1H-benzo[d][1,2,3]triazol-5-yl)-5-(2-methoxy-phenyl)thiazole] | < 75 | > 10 | > 75 | > 0.316 |
| C=CCNc1ccc(-c2nc(-c3ccc4[nH]c(=O)oc4c3)no2)cc1C#N [Compound 189, 2-(allylamino)-5-(3-(2-oxo-2,3-dihydro-benzo[d]oxazol-6-yl)-1,2,4-oxadiazol-5-yl)benzonitrile] | > 75 | < 10 | > 75 | < 0.316 |
| Cc1ccc(-c2noc(-c3ccc4c(c3)nnn4C3CCCC3)n2)s1 [Compound 192, 1-cyclopentyl-5-[3-(5-methylthiophen-2-yl)-1,2,4-oxadiazol-5-yl]-1H-1,2,3-benzotriazole] | < 75 | > 10 | < 75 | > 0.316 |
| CCCn1nnc2cc(-c3nc(-c4ccc(C(F)(F)F)c(F)c4)no3)ccc21 [Compound 193, 5-{3-[3-fluoro-4-(trifluoromethyl)phenyl]-1,2,4-oxadiazol-5-yl}-1-propyl-1H-1,2,3-benzotriazole] | < 75 | > 10 | < 75 | > 0.316 |
| COc1ccc(-c2nc(-c3ccc4c(c3)nnn4C3CCCC3)no2)cc1 [Compound 196, 3-(1-cyclopentyl-1H-benzo[d][1,2,3]triazol-5-yl)-5-(4-methoxyphenyl)-1,2,4-oxadiazole] | < 75 | > 10 | < 75 | > 0.316 |
| CC(C)n1nnc2cc(-c3noc(C45CC6CC(CC(C6)C4)C5)n3)ccc21 [Compound 200, 5-[5-(adamantan-1-yl)-1,2,4-oxadiazol-3-yl]-1-(propan-2-yl)-1H-1,2,3-benzotriazole] | < 75 | > 10 | < 75 | > 0.316 |
| Cc1cc(-c2nc(-c3ccc4c(c3)nnn4C(C)C)no2)cnc1C [Compound 201, 5-(5,6-dimethyl-pyridin-3-yl)-3-(1-isopropyl-1H-benzo[d][1,2,3]triazol-5-yl)-1,2,4-oxadiazole] | > 75 | > 10 | < 75 | > 0.316 |
| COc1ccccc1-c1nsc(-c2ccc3c(c2)nnn3C(C)C)n1 [Compound 213, 5-[3-(2-methoxy-phenyl)-1,2,4-thiadiazol-5-yl]-1-(propan-2-yl)-1H-1,2,3-benzotriazole] | > 75 | > 10 | > 75 | > 0.316 |
| CC(C)n1nnc2cc(-c3ncc(-c4ccccc4Br)s3)ccc21 [Compound 220, 5-(2-bromophenyl)-2-(1-isopropylbenzo-triazol-5-yl)thiazole] | < 75 | > 10 | < 75 | > 0.316 |
| CCC1(CC)CC(=O)c2cc(-c3nsc(-c4ccccc4OC)n3)ccc2O1 [Compound 222, 2,2-diethyl-6-(5-(2-methoxyphenyl)-1,2,4-thiadiazol-3-yl)chroman-4-one] | < 75 | < 10 | > 75 | > 0.316 |
| COc1cccc(-c2noc(-c3ccc4c(c3)nnn4C(C)C)n2)c1 [Compound 228, 5-(1-isopropyl-1H-benzo[d][1,2,3]triazol-5-yl)-3-(3-methoxy-phenyl)-1,2,4-oxadiazole] | < 75 | > 10 | < 75 | > 0.316 |
| Cc1cncc(-c2nc(-c3ccc4c(c3)nnn4C(C)C)no2)n1 [Compound 229, 3-(1-isopropyl-1H-benzo[d][1,2,3]triazol-5-yl)-5-(6-methyl-pyrazin-2-yl)-1,2,4-oxadiazole] | < 75 | < 10 | < 75 | > 0.316 |
| Cc1ccc(-c2nc(-c3ccc4c(c3)nnn4C3CCCC3)no2)cc1 [Compound 235, 3-(1-cyclopentyl-1H-benzo[d][1,2,3]triazol-5-yl)-5-(p-tolyl)-1,2,4-oxadiazole] | < 75 | > 10 | < 75 | > 0.316 |
| CC(C)Oc1ccc(-c2nc(-c3ccc4c(c3)nnn4C(C)C)no2)cc1C(F)(F)F [Compound 246, 5-(4-isopropoxy-3-(trifluoromethyl)phenyl)-3-(1-isopropyl-1H-benzo[d][1,2,3]triazol-5-yl)-1,2,4-oxadiazole] | > 75 | < 10 | > 75 | < 0.316 |
| CC(C)n1nnc2cc(-c3noc(-c4ccc(-c5ccccc5)cc4)n3)ccc21 [Compound 248, 5-([1,1′-biphenyl]-4-yl)-3-(1-isopropyl-1H-benzo[d][1,2,3]triazol-5-yl)-1,2,4-oxadiazole] | < 75 | > 10 | < 75 | > 0.316 |
| CC(C)n1nnc2cc(-c3nc(-c4cncnc4)no3)ccc21 [Compound 249, 1-(propan-2-yl)-5-[3-(pyrimidin-5-yl)-1,2,4-oxadiazol-5-yl]-1H-1,2,3-benzotriazole] | < 75 | > 10 | > 75 | > 0.316 |
| C=CCn1nnc2cc(-c3nc(-c4ccccc4)no3)ccc21 [Compound 270, 5-(3-phenyl-1,2,4-oxadiazol-5-yl)-1-(prop-2-en-1-yl)-1H-1,2,3-benzotriazole] | < 75 | > 10 | < 75 | > 0.316 |
| Cc1cccc(-c2nc(-c3ccc4c(c3)nnn4C3CCCC3)no2)c1 [Compound 273, 3-(1-cyclopentyl-1H-benzo[d][1,2,3]triazol-5-yl)-5-(m-tolyl)-1,2,4-oxadiazole] | < 75 | > 10 | < 75 | > 0.316 |
| CSc1ccccc1-c1nc(-c2ccc3c(c2)nnn3C(C)C)no1 [Compound 276, 3-(1-isopropyl-1H-benzo[d][1,2,3]triazol-5-yl)-5-(2-(methylthio)phenyl)-1,2,4-oxadiazole] | > 75 | < 10 | > 75 | < 0.316 |

Results, then the molecule that gave them:

| Emax [1] [%] | EC50 [1] [µM] | Emax [2] [%] | EC50 [2] [µM] | Compound |
| --- | --- | --- | --- | --- |
| < 75 | > 10 | < 75 | > 0.316 | O=C1CC2(CCC(F)(F)CC2)Oc2ccc(-c3nc(-c4ccncc4)no3)cc21 [Compound 217, 4′,4′-difluoro-6-[3-(pyridin-4-yl)-1,2,4-oxadiazol-5-yl]-3,4-dihydrospiro[1-benzopyran-2,1′-cyclohexane]-4-one] |
| > 75 | > 10 | > 75 | > 0.316 | CCCC1(CCC)CC(=O)c2cc(-c3nc(-c4cccnc4)no3)ccc2O1 [Compound 218, 2,2-dipropyl-6-[3-(pyridin-3-yl)-1,2,4-oxadiazol-5-yl]-3,4-dihydro-2H-1-benzopyran-4-one] |
| < 75 | < 10 | > 75 | > 0.316 | CCC1(CC)CC(=O)c2cc(-c3nc(-c4cccc(C)c4)no3)ccc2O1 [Compound 225, 2,2-diethyl-6-(3-(m-tolyl)-1,2,4-oxadiazol-5-yl)chroman-4-one] |
| > 75 | > 10 | > 75 | > 0.316 | CCC1(CC)CC(=O)c2cc(-c3nc(-c4ccncc4F)no3)ccc2O1 [Compound 226, 2,2-diethyl-6-(3-(3-fluoropyridin-4-yl)-1,2,4-oxadiazol-5-yl)chroman-4-one] |
| > 75 | > 10 | < 75 | < 0.316 | CCC1(CC)CC(=O)c2cc(-c3nc(-c4cccc(O)c4)no3)ccc2O1 [Compound 227, 2,2-diethyl-6-[3-(3-hydroxyphenyl)-1,2,4-oxadiazol-5-yl]chroman-4-one] |
| < 75 | > 10 | > 75 | > 0.316 | CCC1(CC)CC(=O)c2cc(-c3nc(-c4ccccc4OC)ns3)ccc2O1 [Compound 257, 2,2-diethyl-6-(3-(2-methoxyphenyl)-1,2,4-thiadiazol-5-yl)chroman-4-one] |
| < 75 | > 10 | < 75 | > 0.316 | CCC1(CC)CC(=O)c2cc(-c3nc(-c4cccnc4O)no3)ccc2O1 [Compound 258, 2,2-diethyl-6-(3-(2-hydroxypyridin-3-yl)-1,2,4-oxadiazol-5-yl)chroman-4-one] |
| < 75 | < 10 | > 75 | > 0.316 | CCC1(CC)CC(=O)c2cc(-c3nc(-c4cccc(Cl)c4)no3)ccc2O1 [Compound 261, 6-[3-(3-chlorophenyl)-1,2,4-oxadiazol-5-yl]-2,2-diethyl-chroman-4-one] |
| > 75 | < 10 | > 75 | > 0.316 | CCC1(CC)CC(=O)c2cc(-c3nc(-c4ccc(S(=O)(=O)NC)cc4)no3)ccc2O1 [Compound 266, 4-(5-(2,2-diethyl-4-oxochroman-6-yl)-1,2,4-oxadiazol-3-yl)-N-methylbenzene-sulfonamide] |
| > 75 | < 10 | > 75 | < 0.316 | CCC1(CC)CC(=O)c2cc(-c3nc(-c4ccccc4OC)no3)ccc2O1 [Compound 268, 2,2-diethyl-6-[3-(2-methoxyphenyl)-1,2,4-oxadiazol-5-yl]chroman-4-one] |
